Measurements reported in patent US20020156115A1, “Insecticidal and acaricidal composition, and methods of using the same” (AGRO-KANESHO CO., LTD., priority 1999, published 2002).

Columns and labels:
Assay type in all cases: in vivo
[1] = tested on: two-spotted red spiders (Tetranychus telarius); assay: Acaricidal effect on two-spotted red spiders, imago-killing rate, 500 ppm leaf immersion; details: female imagoes on green bean leaf, leaf immersion about 5 seconds, concentration 500 ppm, fifth day after treatment, 25° C.
Protocol: (§1) Acaricidal Effect on Larvae of Two-Spotted Red Spiders (Tetranychus telarius): A stem of green bean seedling having only one primary left was placed in a test tube (capacity: 50 ml) containing water. 15 female imagoes of two-spotted red spiders were put on each leaf. One day after, the leaf having the two-spotted red spiders was immersed (about 5 seconds) in the present insecticide diluted with water, which had been prepared according to the Preparation Example, (concentration: 500 ppm, repetition: twice). They were kept in a constant-temperature room at 25° C. On the fifth day after the treatment, the female imagoes on the leaf of the green bean seedling were observed. The imago-killing rate (%) was determined on the basis of the results of the observation to obtain the results shown in Table 6.

[2] = tested on: eggs of two-spotted red spiders (Tetranychus telarius); assay: Acaricidal effect on eggs of two-spotted red spiders, ovicidal rate, 500 ppm spray; details: eggs on green bean leaf disc; spray 3.5 ml; concentration 500 ppm; 8 days after treatment
Protocol: Acaricidal Effect on Eggs of Two-Spotted Red Spiders (Tetranychus telarius) 5 female imagoes of two-spotted red spiders were released on a green been leaf disc (diameter: 3 cm). Then, the imagoes were left to lay eggs on the leaf disc for 20 hours and then removed therefrom. The present acaricide which had been prepared according to Preparation Example 1 was diluted with water to a predetermined concentration. 3.5 ml of the preparation thus obtained was sprayed with a rotary spraying column (Mizuho Rika) over the disc (concentration: 500 ppm, repetition: twice). 8 days after the treatment, the number of unhatched eggs was counted to determine the ovicidal rate (%).

[3] = tested on: two-spotted red spiders (Tetranychus telarius); assay: Acaricidal effect of a low concentration (12.5 ppm) on two-spotted red spiders; details: leaf immersion, female imagoes, fifth day after treatment, 25° C.
Protocol: as §1, with “A” for “Acaricidal Effect on Larvae of Two-Spotted Red Spiders (Tetranychus telarius): A”
Acaricidal Effect of a Low Concentration of Acaricide on Larvae of Two-Spotted Red Spiders (Tetranychus telarius)
The same tests as those of Test Example 2 were repeated except that the concentration of the acaricide was changed to 12.5 ppm.

CO/C=C(/C(=O)OC)c1c(OCc2cnc(OC(C)C(F)(F)F)s2)c(C)nn1C (racemic) [Table 2-19]
Acaricidal rate (%) [1]: 100%
Ovicidal rate (%) [2]: 100%

CO/C=C(/C(=O)OC)c1c(C#Cc2cc(Cl)cc(Cl)c2)c(C)nn1C [Table 1-6]
Acaricidal rate (%) [1]: 100%
acaricidal effect [3]: 100%
Ovicidal rate (%) [2]: 100%

CO/C=C(/C(=O)OC)c1c(C#Cc2cc(C)cc(C)c2)c(C)nn1C [Table 1-9]
Acaricidal rate (%) [1]: 96%
Ovicidal rate (%) [2]: 80%

CCCc1nn(C)c(/C(=C\OC)C(=O)OC)c1C#Cc1cc(C(F)(F)F)cc(C(F)(F)F)c1 [Table 1-15]
Acaricidal rate (%) [1]: 100%
acaricidal effect [3]: 100%
Ovicidal rate (%) [2]: 100%

CCCc1nn(C)c(/C(=C/OC)C(=O)OC)c1C#Cc1cc(C(F)(F)F)cc(C(F)(F)F)c1 [Table 1-16]
Acaricidal rate (%) [1]: 100%
acaricidal effect [3]: 100%
Ovicidal rate (%) [2]: 100%

CO/C=C(/C(=O)OC)c1c(C#Cc2cc(C(F)(F)F)cc(C(F)(F)F)c2)c(C(C)(C)C)nn1C [Table 1-18]
Acaricidal rate (%) [1]: 100%
acaricidal effect [3]: 100%
Ovicidal rate (%) [2]: 100%

CO/C=C(/C(=O)OC)c1c(C#Cc2cc(C(F)(F)F)cc(C(F)(F)F)c2)c(-c2ccccc2)nn1C [Table 1-19]
Acaricidal rate (%) [1]: 100%
acaricidal effect [3]: 100%
Ovicidal rate (%) [2]: 100%

COC=C(C(=O)OC)c1c(C#Cc2cc(C(F)(F)F)cc(C(F)(F)F)c2)c(C(F)(F)F)nn1C [Table 1-20, Methyl α-[1-methyl-3-trifluoromethyl-4{3,5-bis(trifluoromethyl)phenylethynyl}-5-pyrazole]-β-methoxyacrylate]
Acaricidal rate (%) [1]: 100%
acaricidal effect [3]: 100%
Ovicidal rate (%) [2]: 100%

CCc1nn(CC)c(/C(=C\OC)C(=O)OC)c1C#Cc1cc(C(F)(F)F)cc(C(F)(F)F)c1 [Table 1-28]
Acaricidal rate (%) [1]: 100%
acaricidal effect [3]: 100%
Ovicidal rate (%) [2]: 100%

CO/C=C(/C(=O)OC)c1c(C#Cc2ccc(OC(F)F)cc2)c(C)nn1C [Table 1-30]
Acaricidal rate (%) [1]: 100%
acaricidal effect [3]: 100%
Ovicidal rate (%) [2]: 100%

CO/C=C(/C(=O)OC)c1c(C#Cc2cc(C(F)(F)F)cc(C(F)(F)F)c2)c(-c2ccc(C(F)(F)F)cc2)nn1C [Table 1-36]
acaricidal effect [3]: 100%

CCn1nc(C(F)(F)F)c(C#Cc2nc(OC(C)C)cc(C(F)(F)F)n2)c1/C(=C\OC)C(=O)OC [Table 1-37]
Acaricidal rate (%) [1]: 100%
acaricidal effect [3]: 100%
Ovicidal rate (%) [2]: 100%

CCn1nc(C(F)(F)F)c(C#Cc2cc(C(F)(F)F)cc(C(F)(F)F)c2)c1/C(=C\OC)C(=O)OC [Table 1-39]
Acaricidal rate (%) [1]: 100%
acaricidal effect [3]: 100%
Ovicidal rate (%) [2]: 100%

CCn1nc(C(F)(F)F)c(C#Cc2cc(C(F)(F)F)cc(C(F)(F)F)c2)c1/C(=C/OC)C(=O)OC [Table 1-40]
Acaricidal rate (%) [1]: 100%
acaricidal effect [3]: 100%
Ovicidal rate (%) [2]: 100%

CO/C=C(/C(=O)OC)c1c(OCc2ccc(Oc3ccc(C(F)(F)F)cc3)cc2)c(C)nn1C [Table 2-2]
Acaricidal rate (%) [1]: 100%
Ovicidal rate (%) [2]: 100%

CO/C=C(/C(=O)OC)c1c(OCc2cccc(Oc3cccc(C(F)(F)F)c3)c2)c(C)nn1C [Table 2-6]
Acaricidal rate (%) [1]: 100%
Ovicidal rate (%) [2]: 100%

CO/C=C(/C(=O)OC)c1c(OCc2ccc(F)c(Oc3ccccc3)c2)c(C)nn1C [Table 2-7]
Acaricidal rate (%) [1]: 100%
Ovicidal rate (%) [2]: 100%

CO/C=C(/C(=O)OC)c1c(OCc2cccc(Oc3ccc(Cl)cc3)c2)c(C)nn1C [Table 2-9]
Acaricidal rate (%) [1]: 100%
Ovicidal rate (%) [2]: 100%

CO/C=C(/C(=O)OC)c1c(OCc2ccc(Oc3ccc(Cl)c(Cl)c3)cc2)c(C)nn1C [Table 2-10]
Acaricidal rate (%) [1]: 100%
Ovicidal rate (%) [2]: 100%

CO/C=C(/C(=O)OC)c1c(OCc2cccc(Oc3ccc(C(F)(F)F)cc3Cl)c2)c(C)nn1C [Table 2-11]
Acaricidal rate (%) [1]: 100%
Ovicidal rate (%) [2]: 100%

CO/C=C(/C(=O)OC)c1c(OCc2cccc(Oc3ccc(C)cc3)c2)c(C)nn1C [Table 2-12]
Acaricidal rate (%) [1]: 100%
Ovicidal rate (%) [2]: 100%

CO/C=C(/C(=O)OC)c1c(OCc2ccc(Oc3ncc(C(F)(F)F)cc3Cl)cc2)c(C)nn1C [Table 2-13]
Acaricidal rate (%) [1]: 100%
Ovicidal rate (%) [2]: 100%

CO/C=C(/C(=O)OC)c1c(OCc2sc(Oc3ccc(C(F)(F)F)cc3)nc2C)c(C)nn1C [Table 2-14]
Acaricidal rate (%) [1]: 100%
Ovicidal rate (%) [2]: 100%

CO/C=C(/C(=O)OC)c1c(OCc2cc(C(C)(C)C)ccc2C)c(C)nn1C [Table 2-15]
Acaricidal rate (%) [1]: 100%
Ovicidal rate (%) [2]: 100%

CO/C=C(/C(=O)OC)c1c(OCc2ccc(Cl)c(Cl)c2)c(C)nn1C [Table 2-16]
Acaricidal rate (%) [1]: 96%
Ovicidal rate (%) [2]: 80%

COC=C(C(=O)OC)c1c(OCc2ccc(Cl)cc2Cl)c(C)nn1C [Table 2-18]
Acaricidal rate (%) [1]: 100%
Ovicidal rate (%) [2]: 100%

CO/C=C(/C(=O)OC)c1c(OCc2cccc(Oc3ccc(Cl)c(Cl)c3)c2)c(C)nn1C [Table 2-20]
Acaricidal rate (%) [1]: 100%
Ovicidal rate (%) [2]: 100%

CO/C=C(/C(=O)OC)c1c(OCc2cccc(Oc3ccc(F)cc3)c2)c(C)nn1C [Table 2-21]
Acaricidal rate (%) [1]: 100%
Ovicidal rate (%) [2]: 100%

CO/C=C(/C(=O)OC)c1c(OCc2cc(Cl)ccc2Cl)c(C)nn1C [Table 2-22]
Acaricidal rate (%) [1]: 100%
Ovicidal rate (%) [2]: 100%

CO/C=C(/C(=O)OC)c1c(OCc2ccccc2C(F)(F)F)c(C)nn1C [Table 2-23]
Acaricidal rate (%) [1]: 100%
Ovicidal rate (%) [2]: 100%

CO/C=C(/C(=O)OC)c1c(OCc2ccc(F)cc2C(F)(F)F)c(C)nn1C [Table 2-24]
Acaricidal rate (%) [1]: 100%
Ovicidal rate (%) [2]: 100%

CO/C=C(/C(=O)OC)c1c(OCc2cc(C(F)(F)F)ccc2C(F)(F)F)c(C)nn1C [Table 2-25]
Acaricidal rate (%) [1]: 100%
Ovicidal rate (%) [2]: 100%

CO/C=C(/C(=O)OC)c1c(OCc2cc(C(F)(F)F)cc(C(F)(F)F)c2)c(C(F)(F)F)nn1C [Table 2-26]
Acaricidal rate (%) [1]: 100%
acaricidal effect [3]: 100%
Ovicidal rate (%) [2]: 100%

CO/C=C(/C(=O)OC)c1c(OCc2ccc(OC(F)(F)F)cc2)c(C(F)(F)F)nn1C [Table 2-29]
Acaricidal rate (%) [1]: 100%
Ovicidal rate (%) [2]: 100%

CO/C=C(/C(=O)OC)c1c(OCc2ccc(OC(F)F)cc2)c(C(F)(F)F)nn1C [Table 2-30]
Acaricidal rate (%) [1]: 100%
Ovicidal rate (%) [2]: 100%

CCc1nn(CC)c(/C(=C\OC)C(=O)OC)c1OCc1nc(OC(C)C)cc(C(F)(F)F)n1 [Table 2-32]
Acaricidal rate (%) [1]: 100%
Ovicidal rate (%) [2]: 100%

CCc1nn(CC)c(/C(=C\OC)C(=O)OC)c1OCc1nc(Cl)cc(C(F)(F)F)n1 [Table 2-33]
Acaricidal rate (%) [1]: 100%
Ovicidal rate (%) [2]: 100%

CO/C=C(/C(=O)OC)c1c(COc2ccc(C(F)(F)F)cc2)c(C)nn1C [Table 3-61]
Acaricidal rate (%) [1]: 100%
Ovicidal rate (%) [2]: 100%

CO/C=C(/C(=O)OC)c1c(COc2ccc(OC(F)(F)F)cc2)c(C)nn1C [Table 3-63]
Acaricidal rate (%) [1]: 100%
Ovicidal rate (%) [2]: 100%

CO/C=C(/C(=O)OC)c1c(CSc2ccc(C(F)(F)F)cc2)c(C)nn1C [Table 3-66]
Acaricidal rate (%) [1]: 100%
Ovicidal rate (%) [2]: 100%

CCc1nn(C)c(/C(=N\OC)C(=O)NC)c1CON=C(C)c1ccc(OC(F)(F)F)cc1 [Table 3-75]
Acaricidal rate (%) [1]: 100%
Ovicidal rate (%) [2]: 100%

CO/N=C(/C(=O)OC)c1c(CON=C(C)c2ccc(C(F)(F)F)cc2)c(C)nn1C [Table 3-90]
Acaricidal rate (%) [1]: 100%
Ovicidal rate (%) [2]: 100%

CNC(=O)C(=NOC)c1c(CON=C(C)c2ccc(C(F)(F)F)cc2)c(C)nn1C [Table 3-92]
Acaricidal rate (%) [1]: 100%
Ovicidal rate (%) [2]: 100%

CO/C=C(/C(=O)OC)c1c(CON=C(C)c2cccc(OC(F)F)c2)c(C)nn1C [Table 3-102]
Acaricidal rate (%) [1]: 100%
Ovicidal rate (%) [2]: 100%

C#CCN(C(=O)OC)c1c(OCc2ccccc2)c(C)nn1C [Table 4-23]
Acaricidal rate (%) [1]: 100%
Ovicidal rate (%) [2]: 100%

C#CCN(C(=O)OC)c1c(OCc2cc(Cl)ccc2Cl)c(C)nn1C [Table 4-40]
Acaricidal rate (%) [1]: 100%
Ovicidal rate (%) [2]: 100%

C#CCN(C(=O)OC)c1c(OCc2cccc(OCc3ccccc3)c2)c(C)nn1C [Table 4-85]
Acaricidal rate (%) [1]: 100%
Ovicidal rate (%) [2]: 100%
